Experimental data taken from patent US20260207637A1, “MODULATOR FOR PROMOTING BINDING OF BUTYROPHILIN 3A1/2A1” (priority 2023, published 2026).
Where two headings read alike, the source gives them in different places.

Columns and labels:
MIApaca/FG2 cells = test: EC50 assay of small molecule activated γδ T cells to kill MIApaca/FG2 tumor cells (3-fold dilution protocol); type: cell-based; conditions: 0.05-100 nM, read-out: MIApaca killing (EC50)
Experimental: γδT cells and MIApaca/FG2 tumor cell lines were expanded and cultured in vitro. MIApaca/FG2 cells were digested, and the cells were counted and resuspended in DMEM complete medium, the density of the cell suspension was adjusted and added into a 96-well plate at 5×10^3 cells/100 […]/well for overnight incubation. On the next day, the test compound and the control compound were diluted at a 3-fold ratio with DMSO, and 4 μL of the diluted compound was added to 96 μL of culture medium for 25-fold dilution. 5 μL of 25-fold diluted compound was transferred to the corresponding well which had been plated with tumor cells, and the actual detection concentration was in the range of 0.05-100 nM. γδT cells were resuspended in γδT complete medium, and the density of the cell suspension was adjusted according to the effector-target ratio of E:T=2:1, and then the cell was added to the corresponding well at 1×10^4 cells/100 μL/well. After co-culture at 37° C., 5% CO2 for 20 hours, the cells were centrifuged. The supernatant was removed, and 50 μL of cell lysate containing fluorescein substrate was added to each well. After standing for 18 minutes in the dark, the signal of chemiluminescence was detected. The EC50 value was calculated by four-parameter fitting, with the corresponding signal value of the well with only tumor cells as the minimum killing value, and the corresponding value of the well without tumor cells as the maximum killing value. The killing data of MIApaca/FG2 cells is as follows: […]

[1] = Stability experiment of compounds in human liver microsomes; type: in vitro ADME; conditions: NADPH, 37° C., read-out: T1/2 in human liver microsomes
Experimental: Compounds were prepared as a 10 mM stock solution with DMSO and then diluted with 80% acetonitrile-water to a 100 μM working solution for later use. Human liver microsomes were obtained from BIOIVT.
(1) The liver microsomes taken out from the refrigerator were placed in a 37° C. water bath thermostatic oscillator, pre-incubated for 5 min, and thawed for later use.
(2) A certain amount of NADPH was weighed and added to an appropriate amount of magnesium chloride solution to dissolve into a 2 mM solution for later use.
(3) A mixed solution of the warm incubation system (containing no β-NADPH) was prepared according to the proportions in the “composition of the experimental warm incubation system” above and dispensed at 165 μL/tubes (45 μL/tube for the negative control group and 120 μL/tube for the positive control group).
(4) For the sample at 0 min: 200 μL of internal standard working precipitant was added and then 30 μL of NADPH solution was added.
(5) For other samples: 135 μL NADPH solution was added to initiate the reaction (45 μL magnesium chloride solution was added for the negative control group), and incubated in a 37° C. water bath for 5, 15, 30, and 60 min (incubated in a 37° C. water bath for 60 min for the negative control group), then 60 μL was sampled and added to 200 µL of precipitant containing internal standard.
(6) For the positive control group: 90 L NADPH solution was added to initiate the reaction, and incubated in a 37° C. water bath for 5, 15 min, then 60 μL was sampled and added to 200 μL of precipitant containing internal standard.
(7) For neat sample: 297 μL of water was pipetted into a tube, 1000 μL of internal standard working solution was added, and 3 μL of test compound working solution was added.
(8) All samples were vortexed and centrifuged.
(9) 150 μL of the supernatant was sampled and added to 150 μL of water, mixed uniformly by vortex, and analyzed by LC-MS/MS. The half-life stability data of human liver microsomes is as follows: […]

[2] = Binding rate test of compounds and human plasma protein (equilibrium dialysis); type: in vitro ADME; conditions: human plasma, equilibrium dialysis 6 hours, 37° C.
Experimental: (1) The dry dialysis membrane was soaked with ultrapure water for 20 min or more than 20 min, then soaked with 20% ethanol for 30 min to 1 h, and the membrane was rinsed with ultrapure water 2-3 times. Finally, the membrane was soaked with ultrapure water for 20 minutes for later use.
(2) The frozen plasma was thawed in a water bath at 37° C.
(3) The test compound was diluted into plasma preheated to 37° C. at a final concentration of 1 μM, and the final concentration of the control compound warfarin in plasma was 2 μM.
(4) The pre-treated dialysis membrane was assembled into the dialysis plate according to the specification of the product, and 120 μL of the receiving solution (100 mM phosphate buffer solution added 0.002% Tween 80) was added to one side of the permeable membrane in each dialysis well.
(5) 20 μL of each of the final solutions of the test compound and the control compound were added into a 96-well sample plate in duplicate, and the TO sample was obtained, which was stored in a refrigerator at −20° C. Another 20 μL of the above final solution was added to the other side of the membrane in the dialysis device in duplicate, and incubated at 37° C. by shaking at constant temperature for 6 hours.
(6) After 6 hours of incubation, 20 L of each of the dialyzed receiving solution and the administered plasma were weighed to obtain sample B and sample A in duplicate. The corresponding volume of corresponding blank plasma or receiving solution was added to sample B and sample A, respectively, so that the volume ratio of plasma to buffer in each sample well was 1:1. 300 μL of acetonitrile solution containing internal standard was added to all sample wells, and centrifuged after mixed uniformly.
(7) 200 μL of ultrapure water (150 μL for the control group) was added into the corresponding sample wells of the 96-well sample plate, and 300 μL of the supernatant (150 μL for the control group) was added into the sample well; the samples were analyzed after mixed uniformly. The free percentage and recovery rate of the compound in plasma were calculated using the following formula: Plasma protein binding rate (%)=1−free percentage, wherein free percentage (%)=CB/CA
wherein CB is the concentration of the compound in the receiving solution after equilibrium dialysis, CA is the concentration of the compound in the drug-dosed plasma after equilibrium dialysis, and CT0 is the initial concentration of the compound in plasma.

[3] = Homo sapiens, MIA PaCa-2, γδT cells + MIApaca/FG2, E:T=2:1, co-culture 20 hours
[4] = γδT cells + MIApaca/FG2, E:T=2:1, co-culture 20 hours

SMILES	EC50 (MIApaca/FG2 cells; [3])	half-life [1]	fraction unbound at 6 h, 1 μM [2]	EC50 (MIApaca/FG2 cells; [4])
C/C(=C\CC[P@@](=O)(N[C@@H](C)C(=O)O[C@@H]1CCOC1)Oc1ccccc1)CO (single isomer, unassigned) [Compound 18]	0.2 nM	20.9 min	0.178	–
C/C(=C\CCP(=O)(N[C@@H](C)C(=O)O[C@@H]1CCOC1)Oc1ccccc1)CO (stereo partly drawn) [Compound 7, (R)-Tetrahydrofuran-3-yl (((E)-5-hydroxy-4-methylpent-3-en-1-yl)(phenoxy)phosphoryl)-L-alaninate]	–	21.6 min	0.222	–
C/C(=C\CCP(=O)(N[C@@H](C)C(=O)O[C@H]1CCOC1)Oc1ccccc1)CO (stereo partly drawn) [Compound 8, (S)-tetrahydrofuran-3-yl (((E)-5-hydroxy-4-methylpent-3-en-1-yl)(phenoxy)phosphoryl)-L-alaninate]	–	27.3 min	0.168	–
C/C(=C\CCP(=O)(N[C@@H](C)C(=O)O[C@@H]1CCOC1)Oc1ccc(Cl)cc1)CO (stereo partly drawn) [Compound 15]	–	–	–	0.2 nM
C/C(=C\CCP(=O)(N[C@@H](C)C(=O)O[C@@H]1CCOC1)Oc1ccc(C)cc1)CO (stereo partly drawn) [Compound 16]	–	–	–	0.55 nM
C/C(=C\CCP(=O)(N[C@@H](C)C(=O)O[C@@H]1CCOC1)Oc1cccc2ccccc12)CO (stereo partly drawn) [Compound 17]	–	–	–	0.12 nM
C/C(=C\CCP(=O)(N[C@@H](C)C(=O)OC1CCOCC1)Oc1ccccc1)CO (stereo partly drawn) [Compound 20]	0.48 nM	24 min	0.227	–
CC(C)OC(=O)[C@H](C)NP(=O)(CC/C=C(\F)CO)Oc1ccccc1 (stereo partly drawn) [Compound 23, Isopropyl (((Z)-4-fluoro-5-hydroxy-3-en-1-yl)(phenoxy)phosphoryl)-L-alaninate]	–	–	–	3.96 nM
CC(C)OC(=O)[C@H](C)NP(=O)(CC/C=C(/CO)C(F)(F)F)Oc1ccccc1 (stereo partly drawn) [Compound 24, isopropyl (phenoxy((Z)-5,5,5-trifluoro-4-(hydroxymethyl)pent-3-en-1-yl)phosphoryl)-L-alaninate]	–	–	–	0.78 nM
C/C(=C\CCP(=O)(N[C@@H](C)C(=O)OCCO)Oc1ccccc1)CO (stereo partly drawn) [Compound 25, 2-Hydroxyethyl (((E)-5-hydroxy-4-methylpent-3-en-1-yl)(phenoxy)phosphoryl)-L-alaninate]	–	–	–	0.17 nM
C/C(=C\CCP(=O)(NC(C)(C)C(=O)O[C@@H]1CCOC1)Oc1ccccc1)CO (stereo partly drawn) [Compound 26, (R)-tetrahydrofuran-3-yl 2-((((E)-5-hydroxy-4-methylpent-3-en-1-yl)(phenoxy)phosphoryl)amino)-2-methylpropanoate]	–	–	–	0.1 nM
C[C@H](NP(=O)(CC/C=C(/CO)C(F)(F)F)Oc1ccccc1)C(=O)O[C@@H]1CCOC1 (stereo partly drawn) [Compound 27, (R)-tetrahydrofuran-3-yl (phenoxy((Z)-5,5,5-trifluoro-4-(hydroxymethyl)pent-3-en-1-yl)phosphoryl)-L-alaninate]	0.23 nM	10.5 min	0.193	–
C/C(=C\CCP(=O)(N[C@@H](C)C(=O)OC1CCS(=O)(=O)CC1)Oc1ccccc1)CO (stereo partly drawn) [Compound 28, 1,1-Dioxotetrahydro-2H-thiopyran-4-yl (((E)-5-hydroxy-4-methylpent-3-en-1-yl)(phenoxy)phosphoryl)-L-alaninate]	–	–	–	0.88 nM
CC(=O)N1CCC(OC(=O)[C@H](C)NP(=O)(CC/C=C(\C)CO)Oc2ccccc2)CC1 (stereo partly drawn) [Compound 29]	–	–	–	1.63 nM
C/C(=C\CCP(=O)(N[C@@H](C)C(=O)OC1CC2(COC2)C1)Oc1ccccc1)CO (stereo partly drawn) [Compound 30, 2-Oxaspiro[3.3]heptan-6-yl (((E)-5-hydroxy-4-methylpent-3-en-1-yl)(phenoxy)phosphoryl)-L-alaninate]	0.11 nM	24.4 min	0.359	–
C/C(=C\CCP(=O)(N[C@@H](C)C(=O)OC1CCN(CC(F)(F)F)CC1)Oc1ccccc1)CO (stereo partly drawn) [Compound 31]	0.13 nM	3.91 min	0.129	–
C/C(=C\CCP(=O)(N[C@@H](C)C(=O)O[C@H]1CO[C@H]2OCC[C@H]21)Oc1ccccc1)CO (stereo partly drawn) [Compound 32, (3R,3aS,6aR)-hexahydrofuran[2,3-b]furan-3-yl (((E)-5-hydroxy-4-methylpent-3-en-1-yl)(phenoxy)phosphoryl)-L-alaninate]	0.21 nM	11.4 min	0.214	–
C/C(=C\CCP(=O)(N[C@@H](C)C(=O)O[C@@H]1CCO[C@H](C)C1)Oc1ccccc1)CO (stereo partly drawn) [Compound 33]	0.65 nM	19.9 min	0.192	–
C/C(=C\CCP(=O)(N[C@@H](C)C(=O)O[C@H]1C[C@@H](C)O[C@@H](C)C1)Oc1ccccc1)CO (stereo partly drawn) [Compound 34, (2R,4r,6S)-2,6-dimethyltetrahydro-2H-pyran-4-yl (((E)-5-hydroxy-4-methylpent-3-en-1-yl)(phenoxy)phosphoryl)-L-alaninate]	–	–	–	1.03 nM
C/C(=C\CCP(=O)(N[C@@H](C)C(=O)O[C@@H]1CCNC(=O)C1)Oc1ccccc1)CO (stereo partly drawn) [Compound 35, (R)-2-piperidone-4-yl (((E)-5-hydroxy-4-methylpent-3-en-1-yl)(phenoxy)phosphoryl)-L-alaninate]	2.15 nM	82.5 min	0.429	–
C/C(=C\CCP(=O)(N[C@@H](C)C(=O)OC1(C#N)CCCC1)Oc1ccccc1)CO (stereo partly drawn) [Compound 36, 1-Cyanocyclopentyl (((E)-5-hydroxy-4-methylpent-3-en-1-yl)(phenoxy)phosphoryl)-L-alaninate]	< 0.05 nM	3.08 min	0.038	–
C/C(=C\CC(F)(F)P(=O)(N[C@@H](C)C(=O)O[C@@H]1CCOC1)Oc1ccccc1)CO (stereo partly drawn) [Compound 37, (R)-tetrahydrofuran-3-yl (((E)-1,1-difluoro-5-hydroxy-4-methylpent-3-en-1-yl)(phenoxy)phosphoryl)-L-alaninate]	0.2 nM	8.11 min	0.098	–
C/C(=C\CC(F)(F)P(=O)(N[C@@H](C)C(=O)OC1CCOCC1)Oc1ccccc1)CO (stereo partly drawn) [Compound 38]	–	–	–	0.65 nM
